From ChEMBL document CHEMBL6078646, “Target Ligand Separation and Identification of Isoforsythiaside as a Histone Lysine-Specific Demethylase 1 Covalent Inhibitor Against Breast Cancer Metastasis” (J Med Chem, 2024)
Calls of active or inactive are those of the source. The rule behind the calls is not given here. Residues, ends and D or L forms follow the SMILES beside them. *: point of attachment. Cbz = O=C(OCc1ccccc1)*

What was measured:
[1] = target: T1, Lysine-specific histone demethylase 1A (Homo sapiens, UniProt O60341); experiment: Inhibition of recombinant His-tagged LSD1 (157 to 852 residues) (unknown origin) expressed in Escherichia coli BL21 (DE3) cells using H3K4me2 peptide as substrate incubated for 30 mins by fluorescence microplate reader analysis
[2] = Retention time of the compound by HPLC-MS/MS analysis; format: physicochemical
[3] = target: T1, Lysine-specific histone demethylase 1A; experiment: Binding affinity to recombinant LSD1 (unknown origin) at S817 residue by LC-MS/MS analysis
MDA-MB-231 [4] = experiment: Antimetastatic activity against human MDA-MB-231 cells expressing luciferase xenografted in female Balb/c nude mouse assessed as reduction in lung metastasis at 10 mg/kg, ip administered every 3 days and measured on day 30 by bioluminescence imaging analysis; format: functional, organism-based; conditions: time 30.0 day
MDA-MB-231 [5] = experiment: Antimetastatic activity against human MDA-MB-231 cells expressing luciferase xenografted in female Balb/c nude mouse assessed as reduction in fluorescence intensity in lungs at 10 mg/kg, ip administered every 3 days and measured on day 15 by bioluminescence imaging analysis relative to control; format: functional; set-up: scale not given: the % may be the effect or the level left; conditions: time 15 day
MDA-MB-231 [6] = experiment: Antimetastatic activity against human MDA-MB-231 cells expressing luciferase xenografted in female Balb/c nude mouse assessed as reduction in number of metastatic nodules in the lung at 10 mg/kg, ip administered every 3 days and measured after 30 days by H and E staining based histopathological analysis relative to control; format: functional; set-up: scale not given: the % may be the effect or the level left; conditions: time 30 day
MDA-MB-231 [7] = experiment: Antimetastatic activity against human MDA-MB-231 cells expressing luciferase xenografted in female Balb/c nude mouse assessed as smaller metastatic nodules in lung at 10 mg/kg, ip administered every 3 days and measured after 30 days by H and E staining based analysis; format: functional, organism-based; conditions: time 30.0 day
MDA-MB-231 [8] = experiment: Antitumor activity against human MDA-MB-231 cells expressing luciferase xenografted in female Balb/c nude mouse assessed as increase in body weight at 10 mg/kg, ip administered every 3 days and measured after 33 days; format: functional, organism-based; conditions: time 33.0 day
MDA-MB-231 [9] = experiment: Upregulation of RBMS3 protein expression in human MDA-MB-231 cells at 16 uM by Western blotting analysis; format: functional, cell-based
MDA-MB-231 [10] = experiment: Inhibition of MMP2 production in human MDA-MB-231 cells at 16 uM by Western blotting analysis; format: functional, cell-based
MDA-MB-231 [11] = experiment: Inhibition of Twist1 production in human MDA-MB-231 cells at 16 uM by Western blotting analysis; format: functional, cell-based
MDA-MB-231 [12] = experiment: Induction of LSD1 degradation in human MDA-MB-231 cells incubated for 12 hrs by Western blotting analysis; format: cell-based

## C[C@@H]1O[C@@H](O[C@@H]2[C@@H](O)[C@H](OCCc3ccc(O)c(O)c3)O[C@H](CO)[C@H]2OC(=O)/C=C/c2ccc(O)c(O)c2)[C@H](O)[C@H](O)[C@H]1O [ACETOSIDE]
[1]
  IC50: 3.6 µM
[2]
  Retention_time: 25.8 min

## C[C@@H]1O[C@H](OC[C@H]2O[C@@H](OCCc3ccc(O)c(O)c3)[C@H](O)[C@@H](OC(=O)CCc3ccc(O)c(O)c3)[C@@H]2O)[C@H](O)[C@H](O)[C@H]1O
[3]
  Activity: inactive
[1]
  inhibition: inactive

## CC(=O)O[C@H]1C(=O)[C@@]2(C)[C@H]([C@H](OC(=O)c3ccccc3)[C@]3(O)C[C@H](OC(=O)[C@H](O)[C@@H](NC(=O)c4ccccc4)c4ccccc4)C(C)=C1C3(C)C)[C@]1(OC(C)=O)CO[C@@H]1C[C@@H]2O [PACLITAXEL]
MDA-MB-231 [4]
  Activity: Active
MDA-MB-231 [5]
  Activity: 89.6%
MDA-MB-231 [6]
  Activity: 55.5%
[1]
  IC50: 0.0296 µM
MDA-MB-231 [7]
  Activity: Active
MDA-MB-231 [8]
  Activity: Active; Slight Attenuation Of Body Weight Loss Observed

## N[C@H]1CC[C@H](N[C@@H]2C[C@H]2c2ccccc2)CC1
MDA-MB-231 [9]
  AC30: Active
MDA-MB-231 [10]
  inhibition: Active
MDA-MB-231 [11]
  inhibition: Active

## C[C@@H]1O[C@@H](OC[C@H]2O[C@@H](OCCc3ccc(O)c(O)c3)[C@H](O)[C@@H](O)[C@@H]2OC(=O)/C=C/c2ccc(O)c(O)c2)[C@H](O)[C@H](O)[C@H]1O [FORSYTHIASIDE]
[1]
  IC50: 8.08 µM
[2]
  Retention_time: 31.9 min

## COc1ccc([C@@H]2OC[C@H]3[C@@H]2CO[C@@H]3c2ccc(O[C@H]3O[C@H](CO)[C@@H](O)[C@H](O)[C@H]3O)c(OC)c2)cc1OC
[1]
  IC50: 5.51 µM
[2]
  Retention_time: 40.6 min

## CC(C)C[C@@H](C=O)NC(=O)[C@H](CC(C)C)NC(=O)[C@H](CC(C)C)NC(=O)OCc1ccccc1 (Cbz-Leu-Leu-Leu-aldehyde)
MDA-MB-231 [12]
  Activity: inactive
